Test results from patent publication US9493461B2, “Tetracyclic heterocycle compounds and methods of use thereof for the treatment of hepatitis C” (priority 2013, dated 2016).
Read-outs that look alike come from different tables or passages of the source.

Key:
HCV replicon genotype 1a = assay: HCV replicon assay, genotype 1a (cell ELISA for replicon-encoded NS3/4A); type: cell-based, hepatitis C virus (HCV)
Experimental: Measurement of inhibition by compounds was performed using the HCV replicon system. Several different replicons encoding different HCV genotypes or mutations were used. In addition, potency measurements were made using different formats of the replicon assay, including different ways of measurements and different plating formats. See Jan M. Vrolijk et al., A replicons-based bioassay for the measurement of interferons in patients with chronic hepatitis C, 110 J. V[…] 201 (2003); Steven S. Carroll et al., Inhibition of Hepatitis C Virus RNA Replication by 2′-Modified Nucleoside Analogs, 278(14) J. BIOLOGICAL CHEMISTRY 11979 (2003). However, the underlying principles are common to all of these determinations, and are outlined below.
(§1) Stable neomycin phosphotransferase encoding replicons-harboring cell lines were used, so all cell lines were maintained under G418 selection prior to the assay. Potency was determined using a cell ELISA assay with an antibody to the replicons encoded NS3/4a protease. See Caterina Trozzi et al., In Vitro Selection and Characterization of Hepatitis C Virus Serine Protease Variants Resistant to an Active-Site Peptide Inhibitor, 77(6) J. Virol. 3669 (2003). To initiate an assay, replicon cells were plated in the presence of a dilution series of test compound in the absence of G418. Typically, the assays were performed in a 96-well plate formate for manual operation, or a 384-well plate format for automated assay. Replicon cells and compound were incubated for 96 hours. At the end of the assay, cells were washed free of media and compound, and the cells were then lysed. RNA was quantified indirectly through detection of replicon-encoded NS3/4A protein levels, through an ELISA-based assay with an antibody specific for NS3/4A. IC50 determinations were calculated as a percentage of a DMSO control by fitting the data to a four-parameter fit function and the data obtained is provided in the table below.
(§2) Data for selected compounds of the present invention was obtained for genotypes 1a and 1b using this method and is provided in the table below: […]

HCV replicon genotype 1b = assay: HCV replicon assay, genotype 1b (cell ELISA for replicon-encoded NS3/4A); type: cell-based, hepatitis C virus (HCV)
Experimental: The HCV NS5B inhibitory activity of the present compounds may be tested using assays known in the art. The HCV NS5B polymerase inhibitors described herein have activities in a genotype 1b replicon assay as described in the Examples. The assay is performed by incubating a replicon harboring cell-line in the presence of inhibitor for a set period of time and measuring the effect of the inhibitor on HCV replicon replication either directly by quantifying replicon RNA level, or indirectly by measuring enzymatic activity of a co-encoded reporter enzyme such as luciferase or β-lactamase. By performing a series of such measurements at different inhibitor concentrations, the effective inhibitory concentration of the inhibitor (EC50 or EC90) is determined See Jan M. Vrolijk et al., A replicons-based bioassay for the measurement of interferons in patients with chronic hepatitis C, 110 J. VIROLOGICAL METHODS 201 (2003). Such assays may also be run in an automated format for high through-put screening. See Paul Zuck et al., A cell-based β-lactamase reporter gene assay for the identification of inhibitors of hepatitis C virus replication, 334 ANALYTICAL BIOCHEMISTRY 344 (2004).
Measurement of inhibition by compounds was performed using the HCV replicon system. Several different replicons encoding different HCV genotypes or mutations were used. In addition, potency measurements were made using different formats of the replicon assay, including different ways of measurements and different plating formats. See Jan M. Vrolijk et al., A replicons-based bioassay for the measurement of interferons in patients with chronic hepatitis C, 110 J. VIROLOGICAL METHODS 201 (2003); Steven S. Carroll et al., Inhibition of Hepatitis C Virus RNA Replication by 2′-Modified Nucleoside Analogs, 278(14) J. BIOLOGICAL CHEMISTRY 11979 (2003). However, the underlying principles are common to all of these determinations, and are outlined below.
as §1, §2

[1] = Hepatitis C virus, 96 h, read-out: 1a IC50 (nM), genotype 1a replicon cells, 96 hours incubation, NS3/4A ELISA readout, % of DMSO control
[2] = Hepatitis C virus, 96 h, read-out: 1b IC50 (nM), genotype 1b replicon cells, 96 hours incubation, NS3/4A ELISA readout, % of DMSO control
[3] = read-out: 1a IC50, genotype 1a replicon cells, 96 hours incubation, NS3/4A ELISA readout, % of DMSO control
[4] = read-out: 1b IC50, genotype 1b replicon cells, 96 hours incubation, NS3/4A ELISA readout, % of DMSO control

CNC(=O)c1c(C(=O)N2CC(F)C2)oc2cc(N(C)S(C)(=O)=O)c(-c3ccc4ncn5c6cccc(F)c6cc5c4n3)cc12 [Example 50, 2-(3-fluoroazetidine-1-carbonyl)-5-(11-fluoropyrido[3′,2′:4,5]pyrimido[1,6-a]indol-2-yl)-N-methyl-6-(N-methylmethylsulfonamido)benzofuran-3-carboxamide] gave an IC50 (HCV replicon genotype 1a; [1]) of 18.1 nM and an IC50 (HCV replicon genotype 1b; [2]) of 19.8 nM.
Work on CNC(=O)c1c(-c2ccc(F)cc2)oc2cc(N(C)S(C)(=O)=O)c(-c3ccc4nc(C(C)N5CC(F)C5)n5c6cccc(F)c6cc5c4n3)cc12 (single isomer, unassigned) [Example 40, (S or R)-5-(11-fluoro-6-(1-(3-fluoroazetidin-1-yl)ethyl)pyrido[3′,2′:4,5]pyrimido[1,6-a]indol-2-yl)-2-(4-fluorophenyl)-N-methyl-6-(N-methylmethylsulfonamido)benzofuran-3-carboxamide] yielded an IC50 (HCV replicon genotype 1a; [3]) of 3.91 nM and an IC50 (HCV replicon genotype 1b; [4]) of 4.42 nM.
CNC(=O)c1c(-c2ccc(F)cc2)oc2cc(N(C)S(C)(=O)=O)c(-c3ccc4nc(CN5CC(F)C5)n5c6cccc(F)c6cc5c4n3)cc12 [Example 76, 3-fluoro-1-((11-fluoro-2-(2-(4-fluorophenyl)-3-(methylcarbamoyl)-6-(N-methylmethylsulfonamido)benzofuran-5-yl)pyrido[3′,2′:4,5]pyrimido[1,6-a]indol-6-yl)methyl)azetidin-1-ium methanesulfonate] showed an IC50 (HCV replicon genotype 1a; [1]) of 4.13 nM and an IC50 (HCV replicon genotype 1b; [2]) of 3.78 nM.
Compound CNC(=O)c1c(-c2ccc(F)cc2)oc2cc(N(C)S(C)(=O)=O)c(-c3ccc4c(n3)-c3cc5c(F)cccc5n3C(CCO)N4)cc12 (centres unmarked) [Example 65, 5-(11-fluoro-6-(2-hydroxyethyl)-5,6-dihydropyrido[3′,2′:4,5]pyrimido[1,6-a]indol-2-yl)-2-(4-fluorophenyl)-N-methyl-6-(N-methylmethylsulfonamido)benzofuran-3-carboxamide] has an IC50 (HCV replicon genotype 1a; [1]) of 2.52 nM and an IC50 (HCV replicon genotype 1b; [2]) of 2.42 nM.
With CNC(=O)c1c(-c2ccc(F)cc2)oc2cc(N(C)S(C)(=O)=O)c(-c3cc4c(cn3)ncn3c5cccc(F)c5cc43)cc12 [Example 74, 2-(4-fluorophenyl)-5-(11-fluoropyrido[3′,4′:4,5]pyrimido[1,6-a]indol-2-yl)-N-methyl-6-(N-methylmethylsulfonamido)benzofuran-3-carboxamide] the IC50 (HCV replicon genotype 1a; [1]) was 1.21 nM and the IC50 (HCV replicon genotype 1b; [2]) was 3.07 nM.
In the case of CNC(=O)c1c(-c2ccc(F)cc2)oc2cc(N(C)S(C)(=O)=O)c(-c3ccc4nc(CN5CCN(C(C)=O)CC5)n5c6cccc(F)c6cc5c4n3)cc12 [Example 105], the IC50 (HCV replicon genotype 1a; [1]) is reported as 2.6 nM and the IC50 (HCV replicon genotype 1b; [2]) is reported as 3.79 nM.
Work on CNC(=O)c1c(-c2ccc(F)cc2)oc2cc(N(C)S(C)(=O)=O)c(-c3ccc4nc(CC(=O)OC)n5c6cccc(F)c6cc5c4n3)cc12 [Example 63, methyl 2-(11-fluoro-2-(2-(4-fluorophenyl)-3-(methylcarbamoyl)-6-(N-methylmethylsulfonamido)benzofuran-5-yl)pyrido[3′,2′:4,5]pyrimido[1,6-a]indol-6-yl)acetate] yielded an IC50 (HCV replicon genotype 1a; [1]) of 1.55 nM and an IC50 (HCV replicon genotype 1b; [2]) of 2.76 nM.
For CNC(=O)c1c(-n2ccc(C)cc2=O)oc2cc(N(C)S(C)(=O)=O)c(-c3ccc4nc(CN5CC(C)(C#N)C5)n5c6cccc(F)c6cc5c4n3)cc12 [Example 36], the IC50 (HCV replicon genotype 1a; [1]) was 2.49 nM and the IC50 (HCV replicon genotype 1b; [2]) was 3.21 nM.
Compound CNC(=O)c1c(-c2ccc(F)cc2F)oc2cc(N(C)S(C)(=O)=O)c(-c3ccc4nc(CN5CC[C@H](F)C5)n5c6cccc(F)c6cc5c4n3)cc12 [Example 45] has an IC50 (HCV replicon genotype 1a; [1]) of 4.43 nM and an IC50 (HCV replicon genotype 1b; [2]) of 4.29 nM.
CNC(=O)c1c(-c2ccc(F)cc2)oc2cc(N(C)S(C)(=O)=O)c(-c3cnc4c(c3)-c3cc5c(F)cccc5n3CN4)cc12 [Example 57] was tested, and the IC50 (HCV replicon genotype 1a; [1]) was 2.66 nM and the IC50 (HCV replicon genotype 1b; [2]) was 3.11 nM.
Work on CNC(=O)c1c(-c2ccc(F)cc2)oc2cc(N(C)S(C)(=O)=O)c(-c3ccc4nc(CN5CC(F)C5)n5c6cccc(C#N)c6cc5c4n3)cc12 [Example 120] yielded an IC50 (HCV replicon genotype 1a; [1]) of 1.67 nM and an IC50 (HCV replicon genotype 1b; [2]) of 2.01 nM.
In the case of CNC(=O)c1c(-c2ccc(C)nc2)oc2cc(N(C)S(C)(=O)=O)c(-c3cc4c(cn3)ncn3c5cccc(F)c5cc43)cc12 [Example 19], the IC50 (HCV replicon genotype 1a; [1]) is reported as 2.79 nM and the IC50 (HCV replicon genotype 1b; [2]) is reported as 5.64 nM.
In the case of CCn1cc(-c2oc3cc(N(C)S(C)(=O)=O)c(-c4ccc5nc(CN6CC(F)C6)n6c7cccc(F)c7cc6c5n4)cc3c2C(=O)NC)cn1 [Example 32], the IC50 (HCV replicon genotype 1a; [1]) is reported as 18.6 nM and the IC50 (HCV replicon genotype 1b; [2]) is reported as 8.23 nM.
For CNC(=O)c1c(-n2ccc(C)cc2=O)oc2cc(N(C)S(C)(=O)=O)c(-c3ccc4ncn5c6cccc(F)c6cc5c4n3)cc12 [Example 12], the IC50 (HCV replicon genotype 1a; [1]) was 2.11 nM and the IC50 (HCV replicon genotype 1b; [2]) was 2.36 nM.
Work on CNC(=O)c1c(-c2ccc(F)cc2)oc2cc(N(C)S(C)(=O)=O)c(-c3ccc4nc(CN5CCC(F)(F)C5)n5c6cccc(F)c6cc5c4n3)cc12 [Example 82] yielded an IC50 (HCV replicon genotype 1a; [1]) of 2.74 nM and an IC50 (HCV replicon genotype 1b; [2]) of 2.45 nM.
CNC(=O)c1c(-c2ccc(F)cc2)oc2cc(N(C)S(C)(=O)=O)c(-c3ccc4ncn5c6ccc(F)cc6cc5c4n3)cc12 [Example 20, 2-(4-fluorophenyl)-5-(10-fluoropyrido[3′,2′:4,5]pyrimido[1,6-a]indol-2-yl)-N-methyl-6-(N-methylmethylsulfonamido)benzofuran-3-carboxamide] showed an IC50 (HCV replicon genotype 1a; [1]) of 1.59 nM and an IC50 (HCV replicon genotype 1b; [2]) of 3.33 nM.
CNC(=O)c1c(-c2ccc(F)cc2)oc2cc(N(C)S(C)(=O)=O)c(-c3ccc4nc(CN5CC[C@@H](O)C5)n5c6cccc(F)c6cc5c4n3)cc12 [Example 87] showed an IC50 (HCV replicon genotype 1a; [1]) of 1.28 nM and an IC50 (HCV replicon genotype 1b; [2]) of 1.26 nM.
CNC(=O)c1c(-c2ccc(F)cc2)oc2cc(N(C)S(C)(=O)=O)c(-c3ccc4ncn5c6ccccc6cc5c4c3)cc12 [Example 41, 2-(4-fluorophenyl)-5-(indolo[1,2-c]quinazolin-2-yl)-N-methyl-6-(N-methylmethylsulfonamido)benzofuran-3-carboxamide] showed an IC50 (HCV replicon genotype 1a; [1]) of 2.09 nM and an IC50 (HCV replicon genotype 1b; [2]) of 2.57 nM.
CNC(=O)c1c(-c2ccc(F)cc2)oc2cc(N(C)S(C)(=O)=O)c(-c3ccc4nc(CN5CCC5)n5c6cccc(F)c6cc5c4n3)cc12 [Example 84] showed an IC50 (HCV replicon genotype 1a; [1]) of 1.34 nM and an IC50 (HCV replicon genotype 1b; [2]) of 1.96 nM.
For CNC(=O)c1c(-c2ccc(F)cc2)oc2cc(N(C)S(C)(=O)=O)c(-c3ccc4nc(CN5CC6(CCOCC6)C5)n5c6cccc(C#N)c6cc5c4n3)cc12 [Example 127], the IC50 (HCV replicon genotype 1a; [1]) was 1.5 nM and the IC50 (HCV replicon genotype 1b; [2]) was 2.57 nM.
In the case of CNC(=O)c1c(-c2ccc(F)cc2)oc2cc(N(C)S(C)(=O)=O)c(-c3ccc4nc(CN5CC(C)(F)C5)n5c6cccc(C#N)c6cc5c4n3)cc12 [Example 128], the IC50 (HCV replicon genotype 1a; [1]) is reported as 2.3 nM and the IC50 (HCV replicon genotype 1b; [2]) is reported as 2.98 nM.
CNC(=O)c1c(-c2ccc(F)cc2)oc2cc(N(C)S(C)(=O)=O)c(-c3ccc4nc(CN5CC[C@@H](F)C5)n5c6cccc(C#N)c6cc5c4n3)cc12 [Example 135] showed an IC50 (HCV replicon genotype 1a; [3]) of 2.71 nM and an IC50 (HCV replicon genotype 1b; [4]) of 3.66 nM.
CNC(=O)c1c(-c2ccc(F)cc2F)oc2cc(N(C)S(C)(=O)=O)c(-c3ccc4nc(CN5CC(C)(OC)C5)n5c6cccc(F)c6cc5c4n3)cc12 [Example 138] showed an IC50 (HCV replicon genotype 1a; [1]) of 4.33 nM and an IC50 (HCV replicon genotype 1b; [2]) of 4.59 nM.
With CNC(=O)c1c(-c2ccc(C(F)F)nc2)oc2cc(N(C)S(C)(=O)=O)c(-c3ccc4ncn5c6cccc(F)c6cc5c4n3)cc12 [Example 3] the IC50 (HCV replicon genotype 1a; [1]) was 3.38 nM and the IC50 (HCV replicon genotype 1b; [2]) was 4.12 nM.
Compound CNC(=O)c1c(-c2ccc(F)cc2)oc2cc(N(C)S(C)(=O)=O)c(-c3ccc4nc(CN5[C@H](C)COC[C@@H]5C)n5c6cccc(F)c6cc5c4n3)cc12 [Example 96] has an IC50 (HCV replicon genotype 1a; [1]) of 7.76 nM and an IC50 (HCV replicon genotype 1b; [2]) of 11.2 nM.
